The source of these data is PMC6387968, “An in vitro ADME and in vivo Pharmacokinetic Study of Novel TB-Active Decoquinate Derivatives” (Frontiers in Pharmacology, 2019).

In series [1] the test system is Chinese hamster ovarian (CHO) cell-lines. The following applies: cited from earlier work.
The next series can be described thus: physchem. The conditions noted are these: 22 °C, pH 7.4, aqueous buffer, kinetic from dmso stock. It is filed as physicochemical. How it is done: Stock solutions of each compound prepared in DMSO (10 mM) were spiked in duplicate into phosphate buffer at pH 7.4 (final concentration = 200 μM). Calibration samples were prepared by spiking individual compounds in DMSO at 11, 100, and 220 μM. These were used to generate a calibration curve to determine compound concentrations in the test samples. The samples were agitated for 2 h using a plate shaker (500 rpm, 22°C). Approximately 150 μL of the resulting supernatant was transferred to a 96-well analysis plate and the calibration and test samples were analyzed via HPLC with a diode array detector (Agilent 1200 Rapid Resolution HPLC, Agilent Technologies, Santa Clara, CA, United States) comprising a reverse-phase Gemini-C18 analytical column (5 μm, 50 mm × 2 mm; Phenomenex, Torrance, CA, United States). Mobile phases comprised 0.1% FA in water (A) and 0.1% FA in ACN (B). The run lasted 3 min and a gradient elution method was used (Table 1).

Series [2] in a line: in vitro. In kind it is in vitro ADME. How it is done: Compound solutions prepared in DMSO were diluted in phosphate buffer (final concentration = 1 μg/mL), and were spiked into human plasma and microsomal fractions (total volume = 1 mL). Aliquots were then transferred in duplicate to: (i) a final concentration plate that was immediately quenched with 23.6 ng/mL internal standard (IS, carbamazepine) in ACN, (ii) a degradation control, which was placed in a water bath at 37°C for 4 h, and (iii) ultracentrifuge tubes, which were centrifuged for 4 h at 37°C and 30 000 × g. All reactions were stopped by the addition of ACN containing 23.6 ng/mL carbamazepine. The samples were subjected to liquid chromatography-tandem mass spectrometry (LC-MS/MS) analysis on an AB Sciex 4000 Q Trap hybrid triple quadrupole linear ion-trap MS (AB Sciex, Framingham, MA, United States) coupled to an Agilent 1200 HPLC (Agilent) with a reverse-phase Gemini-C18 analytical column (5 μm, 50 mm × 2 mm; Phenomenex) at 35°C. Mobile phases comprised 0.1% FA in water, and 0.1% FA in ACN. The flow rate was 600 μL/min with a run time of 6 min. A gradient elution was employed (Table 2).

Series [3] is described as follows: in vitro. In kind it is in vitro ADME. The following applies: for EH (hepatic extraction ratio) Human / EH (hepatic extraction ratio) Mouse: 0.1 M; for half-life at 0.1 M / microsomal CLint at 0.1 M: microsomes. As for the experimental part: RMB041, -043, and -073 ([…]) prepared in DMSO were incubated separately with 530 μL mouse and human microsomes (0.4 mg/mL) at 37°C with the cofactor NADPH (1 mM). Compounds were assessed at 0 and 60 min. The reaction was stopped by the addition of ice-cold ACN containing IS (carbamazepine, 23.6 ng/mL). The samples were analyzed via LC-MS/MS using the instrumentation and conditions described above. The in vitro half-life, intrinsic clearance rate, and hepatic extraction ratio were predicted using results from this assay in the following equations ([Obach, 1999]). […] EH=Fu × CLint/QH+Fu × CLint Metabolic stability was assessed as the compound's depletion from a starting concentration of […] over 1 h in mouse and human microsomal fractions. The in vitro half-life can be predicted from this assay. The linear regression from a graph relating natural logarithmic percentage of the compound remaining versus the incubation time was used to calculate the half-life, CLint, and EH.

[4] abbreviates: human, plasma, Plasma protein (fraction unbound).
The mark [5] stands for this setting: human, plasma, percentage plasma protein binding.

For the molecule `CCCCCCCCCCOc1cc2c(=O)c(C(=O)NCCNCCO)cn(CC)c2cc1OCC` [RMB043], the IC50 in series [1] is 80 µM. The molecule also registered a solubility (kinetic) at 2 h in “physchem” of over 150 µM. Besides, the fraction unbound at 4 h, 1 μg/mL was 0.053 in “in vitro [2]” (human, microsomes); 0.23 in “in vitro [2]” (setting [4]); 0.221 in “in vitro [2]” (setting [5]); 0.06 in the series “in vitro [2]” (microsomes). Moreover, the “EH (hepatic extraction ratio) Human” value in the series “in vitro [3]” is on record as 0.4. Also, in “in vitro [3]”, the “EH (hepatic extraction ratio) Mouse” value came to 0.51. Also, the half-life at 0.1 M is 1.42 h in the series “in vitro [3]” (human) and 1 h in “in vitro [3]” (mouse). For the same molecule, the microsomal CLint at 0.1 M in “in vitro [3]” (human) stood at 83 µL/min/mg; in “in vitro [3]” (mouse), 109 µL/min/mg.
With `CCCCCCCCCCOc1cc2c(=O)c(C(=O)NCCOCCO)cn(CC)c2cc1OCC` [RMB041], the IC50 in series [1] is 20 µM. Further, the solubility (kinetic) at 2 h in “physchem” is over 150 µM. Also, the unbound share (fraction unbound) at 4 h, 1 μg/mL is 0.053 in the series “in vitro [2]” (human, microsomes); 0.1 in the series “in vitro [2]” (setting [4]); 0.104 in the series “in vitro [2]” (setting [5]); 0.06 in the series “in vitro [2]” (microsomes). Moreover, the “EH (hepatic extraction ratio) Human” value in the series “in vitro [3]” was under 0.43. In addition, the “EH (hepatic extraction ratio) Mouse” value in “in vitro [3]” is on record as under 0.3. Moreover, the half-life at 0.1 M in “in vitro [3]” (human) and in “in vitro [3]” (mouse) was over 2.5 h each time. Further, the microsomal CLint at 0.1 M in the series “in vitro [3]” (human) was 16 µL/min/mg; in “in vitro [3]” (mouse), 26.8 µL/min/mg.
Turning to `CCCCCCCCCCOc1cc2c(=O)c(C(=O)NCCOCCO)cn(CCO)c2cc1OCC` [RMB073], the concentration for half-maximal inhibition (IC50) in series [1] is 33.9 µM. The molecule also displayed a kinetic solubility at 2 h in the series “physchem” of over 150 µM. Besides, the free fraction (fraction unbound) at 4 h, 1 μg/mL was 0.114 in the series “in vitro [2]” (human, microsomes); 0.16 in the series “in vitro [2]” (setting [4]); 0.156 in “in vitro [2]” (setting [5]); 0.11 in the series “in vitro [2]” (microsomes). For the same molecule, the “EH (hepatic extraction ratio) Human” value in “in vitro [3]” is given as under 0.43. Besides, the “EH (hepatic extraction ratio) Mouse” value in “in vitro [3]” is under 0.3. Further, the half-life at 0.1 M in “in vitro [3]” (human) and in the series “in vitro [3]” (mouse) was over 2.5 h each time. In addition, the microsomal CLint at 0.1 M was determined as 7.78 µL/min/mg in the series “in vitro [3]” (human) and 15 µL/min/mg in “in vitro [3]” (mouse).

For orientation: IC50 means the midpoint of a concentration-inhibition curve. In general, solubility (kinetic) refers to the concentration staying in solution when a stock, usually in DMSO, is diluted into the medium. By fraction unbound is commonly meant free concentration divided by total concentration. A higher fraction unbound goes with weak binding. A word on the half-life: it is the time in which the quantity being followed falls by half. Low readings indicate fast loss, high ones slow loss. Broadly, the microsomal CLint is the capacity of the preparation to metabolise the compound, expressed as a volume cleared per time. A low value points to greater metabolic stability.
